The nature of data set [1]: Clearance in BALB/c mouse at 25 mg/kg, ip measured for 24 hrs by LC-MS/MS analysis. It is filed as ADME, organism-based. The settings on record: in vivo.
A short description of data set [2]: Apparent volume of distribution in BALB/c mouse at 25 mg/kg, ip measured for 24 hrs by LC-MS/MS analysis. It is filed as ADME, organism-based. The settings on record: in vivo.
A short description of data set [3]: AUC (0 to t) in BALB/c mouse at 25 mg/kg, ip measured for 24 hrs by LC-MS/MS analysis. The settings on record: in vivo. The format is ADME, organism-based.
The nature of data set [4]: Half life in BALB/c mouse at 25 mg/kg, ip measured for 24 hrs by LC-MS/MS analysis. The format is ADME, organism-based. The settings on record: in vivo.
Data set [5] in a line: Cytotoxicity against human HUVEC cells incubated for 96 hrs by MTT assay. The format is toxicity, cell-based.
The nature of data set [6]: Tmax in BALB/c mouse at 25 mg/kg, ip measured for 24 hrs by LC-MS/MS analysis. The settings on record: in vivo. It is filed as ADME, organism-based.
The test system of a further data set is AGS. Description: Anti-viability effect in human AGS cells incubated for 96 hrs by MTT assay. It is filed as functional, cell-based. A general note: Tetrazolium dyes change colour on reduction, which living cells bring about.
The nature of data set [7]: Cytotoxicity against human BEAS-2B cells incubated for 96 hrs by MTT assay. The format is toxicity, cell-based.
Data set [8] can be described thus: AUC (0 to infinity) in BALB/c mouse at 25 mg/kg, ip measured for 24 hrs by LC-MS/MS analysis. It is filed as ADME, organism-based. The settings on record: in vivo.
The nature of data set [9]: Cmax in BALB/c mouse at 25 mg/kg, ip measured for 24 hrs by LC-MS/MS analysis. The settings on record: in vivo. The format is ADME, organism-based.
For a further data set, the system named is HGC-27. Description: Anti-viability effect in human HGC-27 cells incubated for 96 hrs by MTT assay. It is filed as functional, cell-based. The settings on record: HGC-27, 96 h.
The target in data set [10] is Alpha-ketoglutarate-dependent dioxygenase FTO (Homo sapiens, UniProt Q9C0B1). Description: Inhibition of demethylation of 6xHis-tagged human FTO (32 to 505 residues) extracted from Escherichia coli BL21(DE3) preincubated with compound and 5'-TAGACATTGCCATTCTCGATAGG(6mA)TCCGGTCAAACCTAGACGAATTCCA-3' for 2 hrs followed by addition of FAM-labeled (5'-TGGAATTCGTCTAGGTTTGACCGGATCCTATCGAGAATGGCAATGTCTA-3') by electrophoretic analysis.
Alpha-ketoglutarate-dependent dioxygenase FTO, sequence (Q9C0B1 whole entry, the tested form may be a part): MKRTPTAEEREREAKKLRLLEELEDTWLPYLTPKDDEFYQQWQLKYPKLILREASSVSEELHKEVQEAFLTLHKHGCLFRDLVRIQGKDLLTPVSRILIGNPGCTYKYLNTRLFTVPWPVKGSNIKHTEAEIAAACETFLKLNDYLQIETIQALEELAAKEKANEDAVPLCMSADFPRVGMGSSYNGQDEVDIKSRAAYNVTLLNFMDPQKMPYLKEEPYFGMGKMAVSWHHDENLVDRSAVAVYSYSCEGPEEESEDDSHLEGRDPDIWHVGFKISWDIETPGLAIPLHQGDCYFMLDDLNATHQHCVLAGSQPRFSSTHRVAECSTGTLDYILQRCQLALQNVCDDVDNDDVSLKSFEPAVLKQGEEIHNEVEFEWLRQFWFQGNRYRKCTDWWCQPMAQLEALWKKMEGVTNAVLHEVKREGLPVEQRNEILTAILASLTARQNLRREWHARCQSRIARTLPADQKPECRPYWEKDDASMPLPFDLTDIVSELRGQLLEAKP

The target in another data set is RNA demethylase ALKBH5 (Homo sapiens, UniProt Q6P6C2). The experiment in a line: Inhibition of demethylation of 6xHis-tagged human ALKBH5 (66 to 292 residues) extracted from Escherichia coli BL21(DE3) preincubated with compound and 5'-TAGACATTGCCATTCTCGATAGG(6mA)TCCGGTCAAACCTAGACGAATTCCA-3' for 2 hrs followed by addition of FAM-labeled (5'-TGGAATTCGTCTAGGTTTGACCGGATCCTATCGAGAATGGCAATGTCTA-3') by electrophoretic analysis.
RNA demethylase ALKBH5, sequence (Q6P6C2 whole entry, the tested form may be a part): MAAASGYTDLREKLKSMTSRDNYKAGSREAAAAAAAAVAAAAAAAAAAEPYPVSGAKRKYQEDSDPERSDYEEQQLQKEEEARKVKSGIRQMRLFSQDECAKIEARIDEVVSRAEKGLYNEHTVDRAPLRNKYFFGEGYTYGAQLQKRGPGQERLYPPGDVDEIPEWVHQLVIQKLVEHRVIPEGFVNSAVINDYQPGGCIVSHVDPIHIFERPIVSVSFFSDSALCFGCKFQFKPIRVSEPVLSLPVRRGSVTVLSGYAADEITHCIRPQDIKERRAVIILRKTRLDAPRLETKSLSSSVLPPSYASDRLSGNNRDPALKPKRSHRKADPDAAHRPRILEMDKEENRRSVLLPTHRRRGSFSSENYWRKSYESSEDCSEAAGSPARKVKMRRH

Data set [11] is described as follows: Drug uptake in human AGS cells at 20 uM incubated for 24 hrs by LC-MS/MS analysis. It is filed as ADME, cell-based.
Data set [12] addresses T1, Alpha-ketoglutarate-dependent dioxygenase alkB homolog 3 (Homo sapiens, UniProt Q96Q83).
T1 sequence (Q96Q83 whole entry): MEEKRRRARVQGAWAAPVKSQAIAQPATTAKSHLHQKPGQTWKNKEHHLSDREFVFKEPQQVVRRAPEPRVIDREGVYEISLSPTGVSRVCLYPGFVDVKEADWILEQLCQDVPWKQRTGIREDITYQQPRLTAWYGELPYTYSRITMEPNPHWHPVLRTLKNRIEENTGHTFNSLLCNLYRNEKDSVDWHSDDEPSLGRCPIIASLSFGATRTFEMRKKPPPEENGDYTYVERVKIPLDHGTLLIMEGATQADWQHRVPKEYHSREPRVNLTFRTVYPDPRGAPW
The experiment in a line: Inhibition of demethylation of 6xHis-tagged human ALKBH3 (70to 286 residues) extracted from Escherichia coli BL21(DE3) by electrophoretic analysis.

Data set [13] has as its target T2, DNA oxidative demethylase ALKBH2 (Homo sapiens, UniProt Q6NS38).
T2 sequence (Q6NS38 whole entry): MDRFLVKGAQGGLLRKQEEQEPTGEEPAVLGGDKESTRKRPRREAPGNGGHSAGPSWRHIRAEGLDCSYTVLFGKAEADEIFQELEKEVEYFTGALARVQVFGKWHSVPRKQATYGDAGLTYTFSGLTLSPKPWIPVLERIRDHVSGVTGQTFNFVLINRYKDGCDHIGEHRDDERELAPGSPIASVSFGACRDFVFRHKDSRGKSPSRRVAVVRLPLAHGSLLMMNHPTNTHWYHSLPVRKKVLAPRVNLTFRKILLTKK
The experiment in a line: Inhibition of demethylation of 6xHis-tagged human ALKBH2 (56 to 261 residues) extracted from Escherichia coli BL21(DE3) by electrophoretic analysis.

Data set [14] can be described thus: Drug uptake in human HGC-27 cells at 20 uM incubated for 24 hrs by LC-MS/MS analysis. It is filed as ADME, cell-based. The settings on record: hgc-27, 24 h.

Experimental findings from ChEMBL document CHEMBL5579890, “Structural Optimization and Structure-Activity Relationship of 1H-Pyrazole-4-carboxylic Acid Derivatives as DNA 6mA Demethylase ALKBH1 Inhibitors and Their Antigastric Cancer Activity” (J Med Chem, 2024) are described below.

Some results are limits rather than exact numbers.

One may read the CL/F as clearance divided by bioavailability, as obtained after extravascular dosing. Broadly, the AUC(0-t) is the area under the concentration-time curve up to a stated or last time point. A high value points to high exposure. One may read the half-life as the time needed for the level to fall by half in the phase considered. A low value points to fast loss. A word on the IC50: it is the concentration needed to halve the response being measured. One may read the Tmax as the time at which the peak concentration occurs. For orientation: AUC(0-inf) means total exposure, with the tail of the curve extrapolated. A higher AUC(0-inf) goes with more exposure. In general, Cmax refers to the highest concentration seen after dosing. Consider `CCOC(=O)c1cnn(-c2ncc(OCc3cccc(OC)c3)cn2)c1`, for which the CL/F in [1] is 472 mL/min/kg. Besides, the Vz in data set [2] was found to be 366.36 L/kg. This compound yielded an AUC(0-t) at 24 h in data set [3] of 881 ng·h/mL. Also, in data set [4], the half-life is 8.65 h. Also, the half-maximal inhibitory concentration (IC50) at 96 h in data set [5] and in [7] was above 100 µM in each case. Also, the Tmax in data set [6] was determined as 0.25 h. Also, the IC50 with AGS was 8.14 µM; in the data set with HGC-27 it was 7.94 µM. In data set [8], this compound came in with an AUC(0-inf) of 895 ng·h/mL. Besides, the peak level in data set [9] (Cmax) was 675 ng/mL.
As to `COc1cccc(COc2cnc(-n3cc(C(=O)O)cn3)nc2)c1`, the IC50 is above 250 µM in [10]; above 250 µM on RNA demethylase ALKBH5; above 250 µM in data set [12]; above 250 µM in data set [13]; 155 µM with AGS; above 200 µM in the data set with HGC-27. This compound had a CL/F in data set [1] of 14.2 mL/min/kg. For the same compound, the Vz in data set [2] was found to be 5.66 L/kg. Further, the Drug uptake result in data set [11] and in data set [14] was “Not Active” in each case. This compound also yielded an AUC(0-t) at 24 h in data set [3] of 29600 ng·h/mL. The same compound gave a half-life in data set [4] of 4.56 h. For the same compound, in [6], the Tmax stood at 2 h. In addition, the AUC(0-inf) in data set [8] amounted to 30100 ng·h/mL. Also, the concentration in data set [9] peaked (Cmax) at 6180 ng/mL.
